The values that follow come from US8628771B2, “CA IX-specific inhibitors” (Institute of Virology Slovak Academy of Sciences, priority 2002, dated 2014).

As a reminder, the Ki is the equilibrium dissociation constant of an inhibitor or competing ligand from its target.

SMILES strings stand for the structures. Like-named read-outs stand apart in the source and are kept apart here.

For one test, the target named is T1, hCA II (Homo sapiens, UniProt P00918).
T1 construct: made in house; host or cells: Escherichia coli BL21 (DE3)
The test can be described thus: CA esterase activity assay, isozyme hCA II. The class given is biochemical.

A further test has as its target hCA IX (Homo sapiens, UniProt Q16790). The test can be described thus: CA CO2 hydrase activity assay, tumor-associated isozyme hCA IX.
In the next test the target is T2, bCA IV (Bos taurus, UniProt Q95323).
T2 construct: CA IV was isolated from bovine lung microsomes as described by Maren et al; from tissue; host or cells: bovine lung microsomes
T2 sequence (Q95323 19-284): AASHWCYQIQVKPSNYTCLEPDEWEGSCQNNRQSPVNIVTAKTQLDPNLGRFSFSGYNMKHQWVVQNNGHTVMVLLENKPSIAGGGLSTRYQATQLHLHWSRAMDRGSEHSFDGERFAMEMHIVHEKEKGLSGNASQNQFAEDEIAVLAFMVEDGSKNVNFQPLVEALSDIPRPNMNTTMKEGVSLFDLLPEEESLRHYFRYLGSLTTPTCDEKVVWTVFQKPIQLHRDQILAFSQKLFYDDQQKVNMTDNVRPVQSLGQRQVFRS
In words: CA esterase activity assay, isozyme bCA IV. It counts as biochemical, bovine.

Another test concerns the target T3, hCA I (Homo sapiens, UniProt P00915).
T3 construct: made in house; host or cells: Escherichia coli BL21 (DE3)
In words: CA esterase activity assay, isozyme hCA I. It counts as biochemical.

The mark [1] stands for this setting: Table 3, human (cloned) isozymes, esterase assay method, read-out: KI hCA II.
[2] abbreviates: Tables 1 and 3, read-out: KI against CA II.
Setting [3] is: read-out: KI hCA IX, Table 3, catalytic domain of the human, cloned isozyme, CO2 hydrase assay method.
[4] abbreviates: Table 3, from bovine lung microsomes, esterase assay method, read-out: KI bCA IV.
[5] abbreviates: Table 3, read-out: KI against CA IV.
The mark [6] stands for this setting: Table 3, human (cloned) isozymes, esterase assay method, read-out: KI hCA I.
[7] abbreviates: Table 3, read-out: KI against CA I.
Setting [8] is: Table 2, human (cloned) isozymes, read-out: KI hCA II.
[9] abbreviates: read-out: KI hCA IX, Table 2, catalytic domain of the human, cloned isozyme.
Where [10] appears, read: Table 2, from bovine lung microsomes, read-out: KI bCA IV.
[11] abbreviates: Table 2, human (cloned) isozymes, read-out: KI hCA I.
Setting [12] is: KI against CA IX, text discussion of Tables 1-3.

T3 sequence (P00915 whole entry): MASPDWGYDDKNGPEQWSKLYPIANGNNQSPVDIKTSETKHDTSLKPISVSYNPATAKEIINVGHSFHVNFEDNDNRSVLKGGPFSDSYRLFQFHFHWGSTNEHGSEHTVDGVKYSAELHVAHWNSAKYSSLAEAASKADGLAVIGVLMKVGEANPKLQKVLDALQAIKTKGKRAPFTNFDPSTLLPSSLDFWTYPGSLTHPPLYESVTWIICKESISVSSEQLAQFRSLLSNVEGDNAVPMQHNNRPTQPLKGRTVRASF
Method for hCA II: Human CA I and CA II cDNAs were expressed in Escherichia coli strain BL21 (DE3) from the plasmids pACA/hCA I and pACA/hCA II described by Lindskog's group [54].
Non-enzymatic hydrolysis rates were always subtracted from the observed rates. […] Inhibitor and enzyme solutions were preincubated together for 10 min at room temperature prior to assay, in order to allow for the formation of the E-I complex. The inhibition constant KI was determined as described in references [44, 76].
Method for hCA IX: An SX.18MV-R Applied Photophysics stopped-flow instrument has been used for assaying the CA CO2 hydration activity assays [44]. […] Inhibitor and enzyme solutions were preincubated together for 10 min at room temperature prior to assay, in order to allow for the formation of the E-I complex.

With `CCCCc1cc(-c2ccccc2)cc(-c2ccccc2)[n+]1-c1ccc(S(=O)(=O)Nc2nnc(S(N)(=O)=O)s2)cc1` [Compound 84, 1-N-[5-Sulfamoyl-1,3,4-thiadiazol-2-yl-(aminosulfonyl-4-phenyl)]-2-n-butyl-4,6-diphenylpyridinium perchlorate], the Ki was 4.95 nM at hCA II (setting [1]); 3.13 to 5.96 nM at hCA II (setting [2]); 45 nM at hCA IX (setting [3]); 8.4 nM at bCA IV (setting [4]); 5.2 to 10.3 nM at bCA IV (setting [5]); 8 nM on hCA I (setting [6]). Also, the Ki on hCA I (setting [7]) lay in the range of 7 to 12 nM.
With `CCc1cc(-c2ccccc2)cc(CC)[n+]1CCc1ccc(S(N)(=O)=O)cc1` [Compound 59], the Ki on hCA II (setting [8]) is 9 nM; at hCA IX, less than 10 nM; at hCA IX (setting [9]), 8 nM; at bCA IV (setting [10]), 21 nM; at hCA I (setting [11]), 1000 nM.
For `CCc1cc(-c2ccccc2)cc(-c2ccccc2)[n+]1-c1ccc(S(=O)(=O)Nc2nnc(S(N)(=O)=O)s2)cc1` [Compound 81, 1-N-[5-Sulfamoyl-1,3,4-thiadiazol-2-yl-(aminosulfonyl-4-phenyl)]-2-ethyl-4,6-diphenylpyridinium perchlorate], the Ki on hCA II (setting [1]) is 1.14 nM; at hCA II (read-out: KI against CA II) it was 0.2 to 1.61 nM; on hCA IX (setting [12]), 12 to 35 nM; at hCA IX (setting [3]) it was 29 nM; at bCA IV (setting [4]) it was 3.8 nM; on hCA I (setting [6]) it was 5 nM.
In the case of `CC(C)(C)c1cc(-c2ccccc2)cc(-c2ccccc2)[n+]1-c1ccc(S(=O)(=O)Nc2nnc(S(N)(=O)=O)s2)cc1` [Compound 85, 1-N-[5-Sulfamoyl-1,3,4-thiadiazol-2-yl-(aminosulfonyl-4-phenyl)]-2-tert-butyl-4,6-diphenylpyridinium perchlorate], the Ki at hCA II (setting [1]) is 4.11 nM; at hCA II (setting [2]), 3.13 to 5.96 nM; at hCA IX, 40 to 43 nM; at hCA IX (setting [3]), 43 nM; on bCA IV (setting [4]) it was 7 nM; at bCA IV (setting [5]) it was 5.2 to 10.3 nM. For the same compound, the Ki is 12 nM at hCA I (setting [6]) and 7 to 12 nM on hCA I (setting [7]).
As to `Cc1cc(C)[n+](-c2ccc(S(N)(=O)=O)cc2)c(C)c1C` [Compound 38], the Ki on hCA II (setting [8]) was 40 nM; at hCA IX, 64 to 135 nM; at hCA IX (setting [9]), 72 nM; on bCA IV (setting [10]) it was 61 nM; at hCA I (setting [11]) it was 5000 nM.
Turning to `Cc1cc(-c2ccccc2)cc(C)[n+]1CCc1ccc(S(N)(=O)=O)cc1` [Compound 58], the Ki at hCA II (setting [8]) was 8 nM; on hCA IX (setting [12]) it was less than 10 nM; at hCA IX (setting [9]), 6 nM; on bCA IV (setting [10]), 20 nM; at hCA I (setting [11]), 1000 nM.
With `CCCCc1cc(-c2ccccc2)cc(-c2ccccc2)[n+]1CCc1ccc(S(N)(=O)=O)cc1` [Compound 66], the Ki amounted to 544 nM on hCA II (setting [8]), 120 nM at hCA IX (setting [9]), 2010 nM at bCA IV (setting [10]) and 290000 nM at hCA I (setting [11]).
In the case of `Cc1cc(-c2ccccc2)cc(C)[n+]1-c1ccc(S(=O)(=O)Nc2nnc(S(N)(=O)=O)s2)cc1` [Compound 75, 1-N-[5-Sulfamoyl-1,3,4-thiadiazol-2-yl-(aminosulfonyl-4-phenyl)]-2,6-dimethyl-4-phenylpyridinium perchlorate], the Ki on hCA II (setting [1]) was 0.2 nM; at hCA II (read-out: KI against CA II), 0.2 to 1.61 nM; at hCA IX (setting [12]), 3 to 9 nM; at hCA IX (setting [3]) it was 6 nM; at bCA IV (setting [4]) it was 2 nM; on hCA I (setting [7]) it was 3 nM.
Turning to `CCc1cc(-c2ccccc2)cc(-c2ccccc2)[n+]1Cc1ccc(S(N)(=O)=O)cc1.[O-][Cl+3]([O-])([O-])[O-]` [Compound 47], the Ki was found to be 314 nM on hCA II (setting [8]), 79 nM at hCA IX (setting [9]), 983 nM at bCA IV (setting [10]) and 42000 nM at hCA I (setting [11]).
With `Cc1cc(-c2ccccc2)cc(-c2ccccc2)[n+]1-c1ccc(S(N)(=O)=O)cc1` [Compound 32], the Ki was found to be 210 nM at hCA II (setting [8]), 280 nM at hCA IX (setting [9]), 852 nM on bCA IV (setting [10]) and 40000 nM at hCA I (setting [11]).
`Cc1cc(-c2ccccc2)cc(-c2ccccc2)[n+]1Cc1ccc(S(N)(=O)=O)cc1` [Compound 46]: the Ki at hCA II (read-out: KI hCA II) was found to be 121 nM; at hCA IX (setting [9]), 64 nM; on bCA IV (setting [10]) it was 161 nM; on hCA I (setting [11]) it was 32000 nM.
As to `CCc1cc(-c2ccccc2)cc(-c2ccccc2)[n+]1-c1ccc(S(N)(=O)=O)cc1` [Compound 33], the Ki at hCA II (setting [8]) was found to be 400 nM; on hCA IX (setting [9]) it was 450 nM; on bCA IV (setting [10]) it was 1300 nM; at hCA I (setting [11]), 43000 nM.
The corresponding values for `CCCc1cc(-c2ccccc2)cc(-c2ccccc2)[n+]1Cc1ccc(S(N)(=O)=O)cc1` [Compound 48] are 390 nM, 85 nM, 1260 nM and 130000 nM.
In the case of `Cc1cc(C)[n+](CCc2ccc(S(N)(=O)=O)cc2)c(C(C)C)c1` [Compound 56], the Ki at hCA II (setting [8]) came to 15 nM; on hCA IX (setting [9]), 31 nM; on bCA IV (setting [10]) it was 32 nM; on hCA I (setting [11]), 2000 nM.
Taken in the same sequence, the figures for `CCCc1cc(-c2ccccc2)cc(CCC)[n+]1-c1ccc(S(N)(=O)=O)cc1` [Compound 30] were 120 nM, 178 nM, 194 nM and 10000 nM.
As to `CCCc1cc(-c2ccccc2)cc(-c2ccccc2)[n+]1-c1ccc(S(=O)(=O)Nc2nnc(S(N)(=O)=O)s2)cc1` [Compound 82, 1-N-[5-Sulfamoyl-1,3,4-thiadiazol-2-yl-(aminosulfonyl-4-phenyl)]-2-n-propyl-4,6-diphenylpyridinium perchlorate], the inhibition constant Ki at hCA II (setting [1]) was 3.9 nM; at hCA II (setting [2]) it was 3.13 to 5.96 nM; on hCA IX (setting [3]) it was 40 nM; on bCA IV (setting [4]) it was 6 nM; on bCA IV (setting [5]), 5.2 to 10.3 nM; on hCA I (setting [6]), 8 nM. Moreover, the Ki on hCA I (setting [7]) lay within 7 to 12 nM.
On to `NS(=O)(=O)c1nnc(NS(=O)(=O)c2ccc(-[n+]3c(-c4ccccc4)cccc3-c3ccccc3)cc2)s1` [Compound 88, 1-N-[5-Sulfamoyl-1,3,4-thiadiazol-2-yl-(aminosulfonyl-4-phenyl)]-2,6-diphenylpyridinium perchlorate], for which the Ki on hCA II (setting [1]) is 4.93 nM; at hCA II (setting [2]), 3.13 to 5.96 nM; at hCA IX, 12 to 35 nM; at hCA IX (setting [3]), 16 nM; on bCA IV (setting [4]) it was 5.4 nM; on bCA IV (setting [5]), 5.2 to 10.3 nM. The Ki at hCA I (setting [6]) is 5 nM.
As for `Cc1cc(C(C)C)[n+](Cc2ccc(S(N)(=O)=O)cc2)c(C(C)C)c1` [Compound 41], the Ki on hCA II (setting [8]) amounted to 80 nM; at hCA IX (setting [9]) it was 54 nM; on bCA IV (setting [10]), 144 nM; at hCA I (setting [11]) it was 11000 nM.
Take `Cc1cc(C)[n+](-c2ccc(S(=O)(=O)Nc3nnc(S(N)(=O)=O)s3)cc2)c(C(C)C)c1` [Compound 72, 1-N-[5-Sulfamoyl-1,3,4-thiadiazol-2-yl-(aminosulfonyl-4-phenyl)]-2-iso-propyl-4,6-dimethylpyridinium perchlorate]: the Ki at hCA II (setting [1]) is 0.39 nM; on hCA II (setting [2]), 0.2 to 1.61 nM; at hCA IX it was 3 to 9 nM; at hCA IX (setting [3]), 5 nM; on bCA IV (setting [4]), 3 nM; on hCA I (setting [6]), 4 nM.
Take `CC(C)c1cc(-c2ccccc2)cc(-c2ccccc2)[n+]1-c1ccc(S(=O)(=O)Nc2nnc(S(N)(=O)=O)s2)cc1` [Compound 83, 1-N-[5-Sulfamoyl-1,3,4-thiadiazol-2-yl-(aminosulfonyl-4-phenyl)]-2-iso-propyl-4,6-diphenylpyridinium perchlorate]: the Ki on hCA II (setting [1]) was 3.74 nM; on hCA II (setting [2]) it was 3.13 to 5.96 nM; at hCA IX it was 12 to 35 nM; on hCA IX (setting [3]) it was 32 nM; at bCA IV (setting [4]), 4.5 nM; at hCA I (setting [6]), 6 nM.
Take `CC(C)c1cc(-c2ccccc2)cc(C(C)C)[n+]1-c1ccc(S(=O)(=O)Nc2nnc(S(N)(=O)=O)s2)cc1` [Compound 79, 1-N-[5-Sulfamoyl-1,3,4-thiadiazol-2-yl-(aminosulfonyl-4-phenyl)]-2,6-di-isopropyl-4-phenylpyridinium perchlorate]: the Ki at hCA II (setting [1]) is 1.61 nM; on hCA II (setting [2]) it was 0.2 to 1.61 nM; at hCA IX (setting [12]), 12 to 35 nM; on hCA IX (setting [3]) it was 30 nM; at bCA IV (setting [4]) it was 4.1 nM; at hCA I (setting [6]), 5 nM.
For `NS(=O)(=O)c1ccc(C[n+]2c(-c3ccccc3)cc(-c3ccccc3)cc2-c2ccccc2)cc1` [Compound 52], the Ki is 472 nM at hCA II (setting [8]); 64 to 135 nM at hCA IX; 120 nM at hCA IX (setting [9]); 1960 nM on bCA IV (setting [10]); 280000 nM on hCA I (setting [11]).
Take `CCCCc1cc(-c2ccccc2)cc(CCCC)[n+]1-c1ccc(S(=O)(=O)Nc2nnc(S(N)(=O)=O)s2)cc1` [Compound 78]: the Ki on hCA II (setting [1]) is 4.62 nM; at hCA II (setting [2]) it was 3.13 to 5.96 nM; on hCA IX (setting [12]) it was 40 to 43 nM; on hCA IX (setting [3]) it was 40 nM; on bCA IV (setting [4]) it was 10.3 nM; on bCA IV (setting [5]), 5.2 to 10.3 nM. The Ki was 10 nM at hCA I (setting [6]) and 7 to 12 nM at hCA I (setting [7]).
